Tests used:
PDGFRalpha(V561D) = biological target: T1, PDGFRalpha(V561D) (Homo sapiens, UniProt P16234, V561D); test: PDGFRalpha(V561D) assay; format: biochemical; settings: recombinant human PDGFRalpha aa 550-end, 200 μM ATP, 1.4E-06 means 1.4×10^−6, read-out: Inhibition (IC50) of PDGFRα (V561D)
T1 construct: recombinant human PDGFRalpha, amino acids 550end containing the V561 D mutation; 6His (N)
How it was run: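 Radiometric filter-binding assay: substrate phosphorylation by recombinant N-His-tagged human PDGFRα 550-end V561D was quenched with 3% phosphoric acid after 40 min at room temperature, then counted.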

c-Kit(V654A) = biological target: T2, c-Kit(V654A) (Homo sapiens, UniProt P10721, V654A); test: c-Kit(V654A) assay; format: biochemical; settings: recombinant human c-Kit aa 544-end, 200 μM ATP, 1.4E-06 means 1.4×10^−6, read-out: Inhibition (IC50) of c-KIT (V654A)
T2 construct: amino acids 544-end containing the V654A mutation; GST (N)
How it was run: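 Radiometric filter-binding read-out: substrate 33P incorporation counted by scintillation after P30 filtermat washes in 75 mM phosphoric acid and methanol. Enzyme: N-GST recombinant human c-Kit aa 544-end carrying V654A.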

T2 sequence (P10721 544-976 V654A): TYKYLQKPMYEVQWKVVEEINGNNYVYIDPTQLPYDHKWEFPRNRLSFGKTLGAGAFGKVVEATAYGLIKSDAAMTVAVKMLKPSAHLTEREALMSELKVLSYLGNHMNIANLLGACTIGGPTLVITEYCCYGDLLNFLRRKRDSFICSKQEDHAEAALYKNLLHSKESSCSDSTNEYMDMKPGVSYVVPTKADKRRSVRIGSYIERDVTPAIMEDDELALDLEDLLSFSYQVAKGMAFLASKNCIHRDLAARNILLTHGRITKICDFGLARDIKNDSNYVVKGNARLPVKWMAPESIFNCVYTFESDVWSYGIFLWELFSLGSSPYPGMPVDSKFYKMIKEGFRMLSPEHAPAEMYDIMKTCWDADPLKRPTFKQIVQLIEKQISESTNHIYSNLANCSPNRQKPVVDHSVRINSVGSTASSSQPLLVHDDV
T1 sequence (P16234 550-1089 V561D): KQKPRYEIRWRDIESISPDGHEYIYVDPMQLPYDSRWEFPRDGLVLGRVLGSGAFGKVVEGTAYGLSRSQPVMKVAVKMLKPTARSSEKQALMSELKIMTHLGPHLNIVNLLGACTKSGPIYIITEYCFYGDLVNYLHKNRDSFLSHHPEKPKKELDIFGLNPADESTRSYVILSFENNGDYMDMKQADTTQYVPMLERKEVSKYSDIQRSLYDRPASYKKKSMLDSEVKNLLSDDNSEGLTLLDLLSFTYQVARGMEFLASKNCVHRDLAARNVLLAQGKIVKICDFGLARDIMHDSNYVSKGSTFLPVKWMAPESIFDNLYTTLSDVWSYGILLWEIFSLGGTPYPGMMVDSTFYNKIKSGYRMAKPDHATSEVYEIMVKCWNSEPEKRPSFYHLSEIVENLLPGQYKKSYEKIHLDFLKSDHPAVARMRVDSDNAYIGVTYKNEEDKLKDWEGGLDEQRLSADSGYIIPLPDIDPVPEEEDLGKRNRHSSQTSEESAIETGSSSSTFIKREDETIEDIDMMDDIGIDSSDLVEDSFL

Row | Compound | IC50 (PDGFRalpha(V561D)) [nM] | IC50 (c-Kit(V654A)) [nM]
1 | CO[C@@H]1CCCN(C(=O)c2ccc(-n3cc(-c4cc5cc(F)ccc5[nH]c4=O)nn3)cc2)C1 [A194, 6-fluoro-3-{1-[4-((R)-3-methoxy-piperidine-1-carbonyl)-phenyl]-1H-[1,2,3]triazol-4-yl}-1H-quinolin-2-one] | 91 | 49
2 | CO[C@H]1CCCN(C(=O)c2ccc(-n3cc(-c4cc5cc(F)ccc5[nH]c4=O)nn3)cc2)C1 [A195, 6-fluoro-3-{1-[4-((S)-3-methoxy-piperidine-1-carbonyl)-phenyl]-1H-[1,2,3]triazol-4-yl}-1H-quinolin-2-one] | 93 | 68
3 | CCN(CC)CCNC(=O)c1ccc(-n2cc(-c3cc4cc(F)ccc4[nH]c3=O)nn2)cc1 [A196, N-(2-diethylamino-ethyl)-4-[4-(6-fluoro-2-oxo-1,2-dihydro-quinolin-3-yl)-[1,2,3]triazol-1-yl]-benzamide] | 110 | 44
4 | O=C(c1ccc(-n2cc(-c3cc4cc(F)ccc4[nH]c3=O)nn2)cc1)N1CCC[C@H]1CO [A197, 6-fluoro-3-{1-[4-((S)-2-hydroxymethyl-pyrrolidine-1-carbonyl)-phenyl]-1H-[1,2,3]triazol-4-yl}-1H-quinolin-2-one] | 32 | 28
5 | COC[C@@H]1CCN(C(=O)c2ccc(-n3cc(-c4cc5cc(F)ccc5[nH]c4=O)nn3)cc2)C1 [A199, 6-fluoro-3-{1-[4-((R)-3-methoxymethyl-pyrrolidine-1-carbonyl)-phenyl]-1H-[1,2,3]triazol-4-yl}-1H-quinolin-2-one] | 22 | 16
6 | COC[C@@H]1CCN(C(=O)c2ccc(-n3cc(-c4cc5cc(F)c(F)cc5[nH]c4=O)nn3)cc2)C1 [A200, 6,7-difluoro-3-{1-[4-((R)-3-methoxymethyl-pyrrolidine-1-carbonyl)-phenyl]-1H-[1,2,3]triazol-4-yl}-1H-quinolin-2-one] | 140 | 180
7 | COC[C@H]1CCN(C(=O)c2ccc(-n3cc(-c4cc5cc(F)c(F)cc5[nH]c4=O)nn3)cc2)C1 [A201, 6,7-difluoro-3-{1-[4-((S)-3-methoxymethyl-pyrrolidine-1-carbonyl)-phenyl]-1H-[1,2,3]triazol-4-yl}-1H-quinolin-2-one] | 92 | 97
8 | COC[C@H]1CCN(C(=O)c2ccc(-n3cc(-c4cc5cc(F)ccc5[nH]c4=O)nn3)cc2)C1 [A202, 6-fluoro-3-{1-[4-((S)-3-methoxymethyl-pyrrolidine-1-carbonyl)-phenyl]-1H-[1,2,3]triazol-4-yl}-1H-quinolin-2-one] | 16 | 57
9 | CCN(CC)CCOC1CCN(C(=O)c2ccc(-n3cc(-c4cc5cc(F)ccc5[nH]c4=O)nn3)cc2)C1 (centres unmarked) [A203, 3-(1-{4-[3-(2-diethylamino-ethoxy)-pyrrolidine-1-carbonyl]-phenyl}-1H-[1,2,3]triazol-4-yl)-6-fluoro-1H-quinolin-2-one] | 490 | 36
10 | O=C(c1ccc(-n2cc(-c3cc4cc(F)ccc4[nH]c3=O)nn2)cc1)N1CCC2(CCOC2)C1 (centres unmarked) [A204, 6-fluoro-3-{1-[4-(2-oxa-7-aza-spiro[4.4]nonane-7-carbonyl)-phenyl]-1H-[1,2,3]triazol-4-yl}-1H-quinolin-2-one] | 110 | 55
11 | O=C(c1ccc(-n2cc(-c3cc4cc(F)ccc4[nH]c3=O)nn2)cc1)N1CCC2(COC2)C1 [A205, 6-fluoro-3-{1-[4-(2-oxa-6-aza-spiro[3.4]octane-6-carbonyl)-phenyl]-1H-[1,2,3]triazol-4-yl}-1H-quinolin-2-one] | 94 | 36
12 | O=C(c1ccc(-n2cc(-c3cc4cc(F)ccc4[nH]c3=O)nn2)cc1)N1CCC(CO)C1 (centres unmarked) [A206, 6-fluoro-3-{1-[4-(3-hydroxymethyl-pyrrolidine-1-carbonyl)-phenyl]-1H-[1,2,3]triazol-4-yl}-1H-quinolin-2-one] | 48 | 24
13 | CN(C)C1CCN(C(=O)c2ccc(-n3cc(-c4cc5cc(F)ccc5[nH]c4=O)nn3)cc2)C1 (centres unmarked) [A207, 3-{1-[4-(3-dimethylamino-pyrrolidine-1-carbonyl)-phenyl]-1H-[1,2,3]triazol-4-yl}-6-fluoro-1H-quinolin-2-one] | 310 | 52
14 | O=C(c1ccc(-n2cc(-c3cc4cc(F)ccc4[nH]c3=O)nn2)cc1)N1CCC(N2CCC(O)CC2)C1 (centres unmarked) [A208, 6-fluoro-3-(1-{4-[3-(4-hydroxy-piperidin-1-yl)-pyrrolidine-1-carbonyl]-phenyl}-1H-[1,2,3]triazol-4-yl)-1H-quinolin-2-one] | 180 | 18
15 | O=C(c1ccc(-n2cc(-c3cc4cc(F)ccc4[nH]c3=O)nn2)cc1)N1CCC(OCCN2CCOCC2)C1 (centres unmarked) [A209, 6-fluoro-3-(1-{4-[3-(2-morpholin-4-yl-ethoxy)-pyrrolidine-1-carbonyl]-phenyl}-1H-[1,2,3]triazol-4-yl)-1H-quinolin-2-one] | 580 | 53
16 | COCCOC[C@@H]1CCN(C(=O)c2ccc(-n3cc(-c4cc5cc(F)ccc5[nH]c4=O)nn3)cc2)C1 [A210, 6-fluoro-3-(1-{4-[(R)-3-(2-methoxy-ethoxymethyl)-pyrrolidine-1-carbonyl]-phenyl}-1H-[1,2,3]triazol-4-yl)-1H-quinolin-2-one] | 300 | 46
17 | COCCN(C)C(=O)c1ccc(-n2cc(-c3cc4cc(F)ccc4[nH]c3=O)nn2)cc1 [A211, 4-[4-(6-fluoro-2-oxo-1,2-dihydro-quinolin-3-yl)-[1,2,3]triazol-1-yl]-N-(2-methoxy-ethyl)-N-methyl-benzamide] | 85 | 190
18 | COCCN(C)C(=O)c1ccc(-n2cc(-c3cc4cc(F)c(F)cc4[nH]c3=O)nn2)cc1 [A212, 4-[4-(6,7-difluoro-2-oxo-1,2-dihydro-quinolin-3-yl)-[1,2,3]triazol-1-yl]-N-(2-methoxy-ethyl)-N-methyl-benzamide] | 160 | 1300
19 | O=C(c1ccc(-n2cc(-c3cc4cc(F)ccc4[nH]c3=O)nn2)cc1)N1CCOC[C@H]1CO [A213, 6-fluoro-3-{1-[4-((R)-3-hydroxymethyl-morpholine-4-carbonyl)-phenyl]-1H-[1,2,3]triazol-4-yl}-1H-quinolin-2-one] | 37 | 65
20 | O=C(c1ccc(-n2cc(-c3cc4cc(F)ccc4[nH]c3=O)nn2)cc1)N1CCCCC1CO (centres unmarked) [A214, 6-fluoro-3-{1-[4-(2-hydroxymethyl-piperidine-1-carbonyl)-phenyl]-1H-[1,2,3]triazol-4-yl}-1H-quinolin-2-one] | 79 | 72
21 | COC[C@@H]1CCCN1C(=O)c1ccc(-n2cc(-c3cc4cc(F)ccc4[nH]c3=O)nn2)cc1 [A215, 6-fluoro-3-{1-[4-((S)-2-methoxymethyl-pyrrolidine-1-carbonyl)-phenyl]-1H-[1,2,3]triazol-4-yl}-1H-quinolin-2-one] | 220 | 64
22 | O=C(c1ccc(-n2cc(-c3cc4cc(F)ccc4[nH]c3=O)nn2)cc1)N1CCOC[C@@H]1CO [A216, 6-fluoro-3-{1-[4-((S)-3-hydroxymethyl-morpholine-4-carbonyl)-phenyl]-1H-[1,2,3]triazol-4-yl}-1H-quinolin-2-one] | 29 | 52
23 | COC[C@@H]1CC[C@@H](COC)N1C(=O)c1ccc(-n2cc(-c3cc4cc(F)ccc4[nH]c3=O)nn2)cc1 [A217, 3-{1-[4-((2S,5S)-2,5-bis-methoxymethyl-pyrrolidine-1-carbonyl)-phenyl]-1H-[1,2,3]triazol-4-yl}-6-fluoro-1H-quinolin-2-one] | 46 | 350
24 | COC[C@H]1CC[C@H](COC)N1C(=O)c1ccc(-n2cc(-c3cc4cc(F)ccc4[nH]c3=O)nn2)cc1 [A218, 3-{1-[4-((2R,5R)-2,5-bis-methoxymethyl-pyrrolidine-1-carbonyl)-phenyl]-1H-[1,2,3]triazol-4-yl}-6-fluoro-1H-quinolin-2-one] | 59 | 64
25 | COC[C@@H]1CC[C@@H](COC)N1C(=O)c1ccc(-n2cc(-c3cc4cc(F)c(F)cc4[nH]c3=O)nn2)cc1 [A219, 3-{1-[4-((2S,5S)-2,5-bis-methoxymethyl-pyrrolidine-1-carbonyl)-phenyl]-1H-[1,2,3]triazol-4-yl}-6,7-difluoro-1H-quinolin-2-one] | 320 | 1600
26 | COC[C@H]1CC[C@H](COC)N1C(=O)c1ccc(-n2cc(-c3cc4cc(F)c(F)cc4[nH]c3=O)nn2)cc1 [A220, 3-{1-[4-((2R,5R)-2,5-bis-methoxymethyl-pyrrolidine-1-carbonyl)-phenyl]-1H-[1,2,3]triazol-4-yl}-6,7-difluoro-1H-quinolin-2-one] | 500 | 980
27 | O=C(c1ccc(-n2cc(-c3cc4cc(F)c(F)cc4[nH]c3=O)nn2)cc1)N1CCC(OCCN2CCOCC2)C1 (centres unmarked) [A221, 6,7-difluoro-3-(1-{4-[3-(2-morpholin-4-yl-ethoxy)-pyrrolidine-1-carbonyl]-phenyl}-1H-[1,2,3]triazol-4-yl)-1H-quinolin-2-one] | 380 | 200
28 | Cc1cc2[nH]c(=O)c(-c3cn(-c4ccc(C(=O)N5CCN(C)CC5)cc4)nn3)cc2cc1F [A222, 6-fluoro-7-methyl-3-{1-[4-(4-methyl-piperazine-1-carbonyl)-phenyl]-1H-[1,2,3]triazol-4-yl}-1H-quinolin-2-one] | 210 | 72

Source: patent publication US11939314B2, “Quinolin-2-one derivatives” (MERCK PATENT GMBH, priority 2016, dated 2024)
